According to article PMC5706701, “Development of a homogenous high-throughput assay for inositol hexakisphosphate kinase 1 activity” (PLoS ONE, 2017):
Values joined by “and” are separate entries in the source; they are usually repeats but may differ in a detail not shown here. Equal values may be shown once. Where a name gives a salt, the structure may show the parent alone. Read-outs that look alike come from different tables or passages of the source.

Target: T1, Human IP6K1 (Homo sapiens, UniProt Q92551)
T1 construct: GST (N, cleaved yes); made in house; host or cells: C43 E. coli, pGEX-6P-2
Assay: IP6K1 high-throughput screen of the Sigma LOPAC (ADP-Glo Max, single point);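 note: final compound concentration 10µM in 5% DMSO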
Type: biochemical

[1] = LOPAC single-point screen, ADP-Glo Max raw signal per well
[2] = LOPAC single-point screen, Z-score from raw signal with plate average and StDev
[3] = Sigma LOPAC single-point screen, ADP-Glo Max raw signal per well
[4] = Sigma LOPAC single-point screen, Z-score from plate average and StDev
[5] = LOPAC single-point screen, ADP-Glo Max luminescence raw signal per well
[6] = LOPAC single-point screen, Z-score relative to plate average and StDev
[7] = LOPAC single-point screen, Z-score against plate average and StDev
[8] = LOPAC single-point screen, Z-score from plate average and StDev

T1 sequence (Q92551 whole entry): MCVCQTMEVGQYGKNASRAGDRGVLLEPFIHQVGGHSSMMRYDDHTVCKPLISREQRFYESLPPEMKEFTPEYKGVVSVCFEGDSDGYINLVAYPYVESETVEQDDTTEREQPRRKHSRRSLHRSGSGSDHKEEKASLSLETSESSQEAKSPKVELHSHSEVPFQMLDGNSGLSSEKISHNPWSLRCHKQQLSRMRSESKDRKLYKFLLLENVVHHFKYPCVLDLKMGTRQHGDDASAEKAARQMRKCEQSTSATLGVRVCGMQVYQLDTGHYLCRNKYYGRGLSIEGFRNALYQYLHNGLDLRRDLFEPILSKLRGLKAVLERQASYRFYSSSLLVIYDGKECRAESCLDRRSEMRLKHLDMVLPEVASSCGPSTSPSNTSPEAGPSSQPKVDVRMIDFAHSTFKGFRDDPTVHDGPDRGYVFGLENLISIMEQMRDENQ

CCCN(CCC)CCc1cccc2c1CC(=O)N2 [Ropinirole hydrochloride]
Raw Signal [1]: 53968
Z-score [2]: -0.3994

CC[C@H](CO)Nc1nc(NCc2ccccc2)c2ncn(C(C)C)c2n1 [Roscovitine]
Raw Signal [1]: 54754
Z-score [2]: -0.2467

C=C(C)[C@H]1Cc2c(ccc3c2O[C@@H]2COc4cc(OC)c(OC)cc4[C@@H]2C3=O)O1 [Rotenone]
Raw Signal [3]: 59768
Z-score [4]: 0.7274

CC(=O)c1c(O)c(C)c(O)c(Cc2c(O)c3c(c(C(=O)/C=C/c4ccccc4)c2O)OC(C)(C)C=C3)c1O [Rottlerin]
Raw Signal [1]: 55469
Z-score [2]: -0.1078

CCN(CC)CC.Nc1ncnc2c1ncn2C1OC2COP(O)(=S)O[C@@H]2[C@@H]1O (some centres unmarked) [Rp-cAMPS triethylamine]
Raw Signal: 55695
Z-score: -0.3907

O=c1c2ccccc2nc2n1CCc1c-2[nH]c2ccccc12 [Rutaecarpine]
Raw Signal [1]: 54118
Z-score [2]: -0.3703

N.N.N.N.N.N.N.N.N.N.N.N.N.N.[Cl-].[Cl-].[Cl-].[Cl-].[Cl-].[Cl-].[O-2].[O-2].[Ru+3].[Ru+3].[Ru+4] [Ruthenium red]
Raw Signal [5]: 52989
Z-score [6]: -0.5896

CC(C)Cc1ccc([C@H](C)C(=O)O)cc1 [S(+)-Ibuprofen]
Raw Signal [1]: 55445
Z-score [7]: 0.1767

CC(C)NC[C@@H](O)c1ccc(O)c(O)c1.O=C(O)C(O)C(O)C(=O)O [S(+)-Isoproterenol (+)-bitartrate]
Raw Signal [1]: 55551
Z-score [7]: 0.1945

CCCN1CCO[C@@H]2c3cc(O)ccc3OC[C@H]21.Cl [S(+)-PD 128,907 hydrochloride]
Raw Signal [1]: 56406
Z-score [7]: 0.07425

CC(C)NC[C@H](O)COc1ccc(CC(N)=O)cc1 [S(-)-Atenolol]
Raw Signal [1]: 56960
Z-score [2]: -0.1679

CCN1CCC[C@H]1CNC(=O)c1c(OC)ccc(I)c1O [S(-)-IBZM]
Raw Signal [5]: 51122
Z-score [6]: -0.5497

CC(C)NCC(O)COc1cccc2[nH]ccc12 (stereo not drawn) [S(-)-Pindolol]
Raw Signal [5]: 52829 and 52276

CC(C)(C)NC[C@H](O)COc1nsnc1N1CCOCC1.O=C(O)/C=C\C(=O)O [S(-)-Timolol maleate]
Raw Signal [1]: 57221
Z-score [7]: 0.2326

N[C@@H](Cn1ccc(=O)[nH]c1=O)C(=O)O [S(-)-Willardiine]
Raw Signal [1]: 55281
Z-score [2]: -0.1443

Brc1ccc([C@H]2CN3CCSC3=N2)cc1.O=C(O)C(=O)O [S(-)-p-Bromotetramisole oxalate]
Raw Signal [3]: 61891
Z-score [4]: 0.7006

N[C@@H](Cn1cc(I)c(=O)[nH]c1=O)C(=O)O [S-5-Iodowillardiine]
Raw Signal [1]: 55016
Z-score [2]: -0.1958

Nc1nc(SCc2ccc([N+](=O)[O-])cc2)c2ncn([C@@H]3O[C@H](CO)[C@@H](O)[C@H]3O)c2n1 [S-(4-Nitrobenzyl)-6-thioguanosine]
Raw Signal [3]: 63053
Z-score [4]: 0.9053

O=[N+]([O-])c1ccc(CSc2ncnc3c2ncn3[C@@H]2O[C@H](CO)[C@@H](O)[C@H]2O)cc1 [S-(4-Nitrobenzyl)-6-thioinosine]
Raw Signal [5]: 50827
Z-score [6]: -0.5993

CNCC[C@H](Oc1ccc(C(F)(F)F)cc1)c1ccccc1.Cl [S-(+)-Fluoxetine hydrochloride]
Raw Signal [3]: 58446
Z-score [4]: 0.6659

C[C@@](Cc1ccc(O)c(O)c1)(NN)C(=O)O [S-(-)-Carbidopa]
Raw Signal [1]: 55065
Z-score [7]: -0.02072

CCc1cc(Cl)c(O)c(C(=O)NC[C@@H]2CCCN2CC)c1OC.Cl [S-(-)-Eticlopride hydrochloride]
Raw Signal [5]: 63565
Z-score [8]: 1.706

[N-]=[N+]=Nc1ccc(C(=O)CSC[C@H](NC(=O)CC[C@H](N)C(=O)O)C(=O)NCC(=O)O)cc1 [S-(p-Azidophenacyl)glutathione]
Raw Signal [1]: 57217
Z-score [2]: -0.1226

Br.CCSC(=N)N [S-Ethylisothiourea hydrobromide]
Raw Signal [1]: 55596
Z-score [7]: 0.08712

CSC(N)=NCCC[C@H](N)C(=O)O [S-Methyl-L-thiocitrulline acetate]
Raw Signal [1]: 53034
Z-score [2]: -0.2284

CSC(=N)N.CSC(=N)N.O=S(=O)(O)O [S-Methylisothiourea hemisulfate]
Raw Signal [1]: 51759
Z-score [2]: -0.4427

N[C@@H](CCC(=O)N[C@@H](CSN=O)C(=O)NCC(=O)O)C(=O)O [S-Nitrosoglutathione]
Raw Signal [1]: 53456
Z-score [2]: -0.1575

Cl.Cn1ccc2cc(NC(=O)Nc3cccnc3)ccc21 [SB 200646 hydrochloride]
Raw Signal [1]: 55663
Z-score [2]: -0.3963

Oc1ccc(-c2nc(-c3ccncc3)c(-c3ccc(F)cc3)[nH]2)cc1 [SB 202190]
Raw Signal [1]: 58086
Z-score [7]: 0.03045

O=C(OCCN1CCCCC1)c1c[nH]c2ccccc12 [SB 203186]
Raw Signal [5]: 49486
Z-score [6]: -1.154

CCCCN1CCC(COC(=O)c2cc(Cl)c(N)c3c2OCCO3)CC1.Cl [SB 204070 hydrochloride]
Raw Signal [3]: 60689
Z-score [4]: 0.9064

Cc1cc(NC(=O)Nc2ccc3c(ccn3C)c2)sn1 [SB 204741]
Raw Signal [1]: 55947
Z-score [2]: -0.3463

CC#CCOC(=O)c1c(C)nc2sc3c(c2c1N)CCC(O)C3 (centres unmarked) [SB 205384]
Raw Signal [3]: 57931
Z-score [4]: 0.3705

Cn1ccc2cc3c(cc21)CCN3C(=O)Nc1cccnc1 [SB 206553 hydrochloride]
Raw Signal [1]: 56981
Z-score [7]: 0.186

Cn1cc(C2=C(c3ccc(Cl)cc3Cl)C(=O)NC2=O)c2ccccc21 [SB 216763]
Raw Signal [3]: 56670
Z-score [4]: 0.3825

COC(=O)[C@H](NC(=O)c1cc(-c2ccccc2)nc2ccccc12)c1ccccc1 [SB 218795]
Raw Signal [3]: 57840
Z-score [4]: 0.5429

CC[C@H](NC(=O)c1c(C)c(-c2ccccc2)nc2ccccc12)c1ccccc1 [SB 222200]
Raw Signal [1]: 57369
Z-score [2]: -0.09583

Cc1nc(-c2ccc(-c3ccc(C(=O)N4CCc5cc6c(cc54)C4(CCN(C)CC4)CO6)cc3)c(C)c2)no1.Cl [SB 224289 hydrochloride]
Raw Signal [3]: 58823
Z-score [4]: 0.5438

COc1cc2c(cc1C(F)(F)F)N(C(=O)Nc1cc(F)cc(-c3cccnc3)c1)CC2 [SB 228357]
Raw Signal [3]: 58844
Z-score [4]: 0.7468

CC1CCN(CC[C@H]2CCCN2S(=O)(=O)c2cccc(O)c2)CC1.Cl [SB 269970 hydrochloride]
Raw Signal [1]: 57058
Z-score [7]: 0.2009

COc1cccc(NC(=O)/C=C/c2ccc(Cl)cc2)c1 [SB-366791]
Raw Signal [5]: 52546
Z-score [6]: -0.6757

CC(=O)NNC(=O)N1Cc2ccccc2Oc2ccc(Cl)cc21 [SC 19220]
Raw Signal [3]: 57783
Z-score [4]: 0.3418

Cc1nc2c(OCc3ccccc3)cccn2c1CC#N [SCH-28080]
Raw Signal [5]: 49264
Z-score [6]: -1.199

Br.CN=c1nc(-c2ccccc2)n(-c2ccccc2)s1 [SCH-202676 hydrobromide]
Raw Signal [5]: 51247
Z-score [6]: -0.928

CCN(CC)CCOC(=O)c1cc(Cl)c(N)cc1OC.Cl [SDZ-205,557 hydrochloride]
Raw Signal [1]: 56215
Z-score [7]: 0.03715

Cc1ccc(O)c(N=Nc2ccccc2)n1 [SIB 1757]
Raw Signal [5]: 46352
Z-score [6]: -1.879

Cc1cccc(/C=C/c2ccccc2)n1 [SIB 1893]
Raw Signal [1]: 55669
Z-score [7]: -0.06893

Br.CN1CCc2cc(O)c(O)cc2C(c2ccccc2)C1 (centres unmarked) [SKF 75670 hydrobromide]
Raw Signal [1]: 56113
Z-score [7]: 0.01733

Br.Cc1cccc(C2CN(C)CCc3c2cc(O)c(O)c3Cl)c1 (centres unmarked) [SKF 83959 hydrobromide]
Raw Signal [5]: 52693
Z-score [6]: -0.6471

CN1CCc2cccc(Cl)c2CC1 [SKF 86466]
Raw Signal [1]: 54503
Z-score [2]: -0.2955

Br.Oc1ccc(C2CNCc3sccc32)cc1O (centres unmarked) [SKF 89626]
Raw Signal [1]: 56262
Z-score [7]: 0.04628

Cl.O=C(O)C1CCCN(CCC=C(c2ccccc2)c2ccccc2)C1 (centres unmarked) [SKF 89976A hydrochloride]
Raw Signal [1]: 57225
Z-score [7]: 0.2334

CN(C)CCCCSC(=N)N.Cl.Cl [SKF 91488 dihydrochloride]
Raw Signal [1]: 55411
Z-score [2]: -0.1191

CN/C(=N\c1ccc(C2=NNC(=O)CC2C)cc1)NC#N (centres unmarked) [SKF 94836]
Raw Signal [1]: 55520
Z-score [2]: -0.09788

O=C(O)/C=C\C(=O)O.O=C(O)/C=C\C(=O)O.c1cc(CN2CCCCC2)cc(OCCCNc2nc3ccccc3s2)c1 [SKF 95282 dimaleate]
Raw Signal [1]: 54088
Z-score [2]: -0.3761

COc1ccc(CCCOC(Cn2ccnc2)c2ccc(OC)cc2)cc1 (centres unmarked) [SKF 96365]
Raw Signal [1]: 56420
Z-score [7]: 0.07697

CP(=O)(O)CCCN.Cl [SKF 97541 hydrochloride]
Raw Signal [1]: 57179
Z-score [2]: -0.1293

CCCC(C(=O)OCCN(CC)CC)(c1ccccc1)c1ccccc1.Cl [SKF-525A hydrochloride]
Raw Signal [5]: 51241
Z-score [6]: -0.5297

C=CCN1C[C@H](C)N([C@H](c2ccc(C(=O)N(CC)CC)cc2)c2cccc(OC)c2)C[C@H]1C [SNC80]
Raw Signal [1]: 54916
Z-score [2]: -0.2152

Oc1c2ccccc2c2c3c(cccc13)N=N2 [SP600125]
Raw Signal [3]: 57057
Z-score [4]: 0.3838

Nc1ncnc2c1ncn2C1CCCO1 (centres unmarked) [SQ 22536]
Raw Signal [5]: 63004
Z-score [8]: 1.356

O=C(O)c1ccccc1Nc1cccc(OCc2ccc3ccccc3n2)c1 [SR 2640]
Raw Signal [5]: 52929
Z-score [6]: -0.6013

Cl.NC1CCN(c2cccc(Cl)n2)CC1 [SR 57227A]
Raw Signal [5]: 53376
Z-score [6]: -0.5144
